Results on three compounds are retold here after patent US7030246B2, “Tetrahydroquinoline derivatives as stat6-modulators, preparation and use thereof” (Astrazeneca AB, priority 2001, dated 2006).

For this test, the system named is STAT6 signaling pathway. Nature of the test: Inhibition of STAT6-driven reporter gene activity (IL-4 induced luciferase in transfected U937 cells). The following applies: U-937; U937 cells stably transfected with IL-4 responsive luciferase reporter; 10 ng/ml recombinant human IL-4, 4–5 h; compound added 5 min before IL-4; read-out: IC50 (concentration of compound giving 50 percent inhibition of the luciferase response to addition of IL-4). Type of test: cell-based. From the text:
The ability of the compounds described herein to inhibit STAT6 signaling pathway is manifested in their ability to inhibit STAT6 driven reporter gene activity.
The cytokine-responsive human cell line U937 were transfected with a reporter gene plasmid consisting of an interluekin 4 (IL-4) responsive promoter driving the heterologous firefly gene for luciferase. The reporter gene plasmid also contained a gene for neomycin resistance. The IL-4 responsive promoter were constructed by four oligomerized combined C/BEPβ and STAT6 binding sites with the nucleotide sequence […] in close contact with a TATA-box. Cells with a stable integration of the reporter gene plasmid were selected by cultivation in neomycin. Such transfected cells were used for IL-4 induction by adding 10 ng/ml recombinant human IL-4 to 0.5–1×10^6 cells per ml. IL-4 induction were carried out for 4–5 h. Thereafter the cells were lysed and luciferase activity determined by using standard techniques. Numbers measured are the mean fold induction (fold induction for U937 is defined as the luciferase response in an IL-4 treated U937 cell sample divided by the luciferase response in an untreated U937 cell sample). Typically, IL-4 stimulation gave 15–20 fold induction of the luciferase response. Compounds were added 5 min before IL-4 when tested in the reporter gene assay. Compound effect was expressed as the concentration of compound giving 50 percent inhibition (IC50) of the luciferase response to addition of IL-4.
In general terms: In a reporter assay the amount or activity of a reporter protein is the signal.
In the case of `CC(=O)N1c2ccccc2[C@H](Nc2ccc(C)cc2)C[C@@H]1C` (relative stereo) [No 27 Table I, (2S*,4R*)-1-Acetyl-2-methyl-N-(4-methylphenyl)-1,2,3,4-tetrahydro-4-quinolinamine], the IC50 turned out to be 800 nM.

Regarding `CC(=O)N1c2ccccc2[C@H](Nc2ccc(C#N)cc2)C[C@@H]1C` (relative stereo) [No 36 Table I, 4-{[(2S*,4R*)-1-acetyl-2-methyl-1,2,3,4-tetrahydro-4-quinolinyl]amino}benzonitrile], the IC50 was 430 nM.

Consider `CC(=O)N1c2ccc(I)cc2[C@H](Nc2ccccc2)C[C@@H]1C` (relative stereo) [No 74 Table I, (2S*,4R*)-1-Acetyl-1,2,3,4-tetrahydro-6-iodo-2-methyl-N-phenyl-4-quinolinamine], for which the IC50 was 180 nM.
